Data from patent US11111375B2, “Compositions and methods for generating oligodendrocyte precursors” (The Regents of the University of California, priority 2015, dated 2021).

Experiments:
H9 hESCs = experiment: Preliminary comparison of SHH and SAG for early OPC differentiation (ICC); type: cell-based, human; conditions: 3D, 13 days
Procedure: Following expansion, hPSCs were cultured in early OPC differentiation medium as described in FIG. 4A and fed daily with neural induction medium. Briefly, cells were first patterned with the dual-SMAD inhibitors LDN193189 and SB431542, and then ventralized using SHH or SAG. In some conditions, cells were caudalized using RA. On day 11 of the differentiation, cell-aggregates were split at a 1 to 3 ratio, broken into smaller-size aggregates by gentle pipetting (up and down, 10-15 times), re-encapsulated in the thermoresponsive gel, and fed with OPC proliferation medium. O1 ng/mL of FGF-2 (Peprotech) was then added to the OPC proliferation media described in FIG. 7A (added daily from day 14 until day 18, or from day 20 until day 24 of the differentiation). After FGF treatment, cells were fed every 2-3 days with OPC maturation medium, which included 20 μg/mL of L-Ascorbic Acid (Sigma) from day 75 until day 95. […]
For ICC analysis of cells differentiated in 3D, cell-spheres were transferred onto poly-D-lysine (10 μg/mL) and laminin (10 μg/mL)-coated glass-bottom plates, and incubated with their respective medium to enable cell spreading. […] Image Xpress Micro (IXM) was used for ICC quantification analysis, and Zeiss LSM 710 Axio Observer was used for confocal imaging. Images were analyzed using ImageJ and quantified using CellProfiler.

H9 cells = experiment: ICC of OPC maturation markers (O4, SOX10, NKX2.2, OLIG2) in H9 cells; type: cell-based, human
Procedure: Following expansion, hPSCs were cultured in early OPC differentiation medium as described in FIG. 4A and fed daily with neural induction medium. Briefly, cells were first patterned with the dual-SMAD inhibitors LDN193189 and SB431542, and then ventralized using SHH or SAG. In some conditions, cells were caudalized using RA. On day 11 of the differentiation, cell-aggregates were split at a 1 to 3 ratio, broken into smaller-size aggregates by gentle pipetting (up and down, 10-15 times), re-encapsulated in the thermoresponsive gel, and fed with OPC proliferation medium. O1 ng/mL of FGF-2 (Peprotech) was then added to the OPC proliferation media described in FIG. 7A (added daily from day 14 until day 18, or from day 20 until day 24 of the differentiation). After FGF treatment, cells were fed every 2-3 days with OPC maturation medium, which included 20 μg/mL of L-Ascorbic Acid (Sigma) from day 75 until day 95. See FIG. 20 for a detailed description of the differentiation conditions.
For ICC analysis of cells differentiated in 3D, cell-spheres were transferred onto poly-D-lysine (10 μg/mL) and laminin (10 μg/mL)-coated glass-bottom plates, and incubated with their respective medium to enable cell spreading. After 48 hr (for early OPC differentiation) or 5 days (for late stage OPC analysis), cells were fixed with 4% PFA for 15 min at RT. After one wash with PBS, cells were incubated overnight at 4° C. with primary antibody in freshly prepared staining primary solution (5% donkey serum, (DS), 2% bovine serum albumin (BSA) and 0.25% Triton X-100 in PBS). Then, cells were gently washed twice with PBS, and incubated for 2 hr at room temperature (RT) with secondary antibodies and 4′,6-diamidino-2-phenylindole (DAPI) (1:1000) in freshly prepared secondary staining solution (2% DS, 2% BSA and 0.25% Triton X-100 in PBS). Cells were then washed three times with PBS and imaged using a Zeiss Axio Observer epi-fluorescent microscope. Image Xpress Micro (IXM) was used for ICC quantification analysis, and Zeiss LSM 710 Axio Observer was used for confocal imaging. Images were analyzed using ImageJ and quantified using CellProfiler.

[1] = early FGF treatment: FGF-2 daily day 14 to day 18

CNC1CCC(N(Cc2cccc(-c3ccncc3)c2)C(=O)c2sc3ccccc3c2Cl)CC1 (centres unmarked) [SAG]
differences in NKX2.2 and OLIG2 expression, SHH vs SAG (H9 hESCs): only minor differences

FGF-2: basic fibroblast growth factor-2 added to OPC proliferation medium
fewer O4+ OPCs than with early FGF treatment (H9 cells; FGF-2 from days 20-24, day 95): ~4 fold | OPC differentiation on day 24 versus analogous condition without FGF (H9 cells; [1]): similar | number of cells expressing O4 by day 95 (H9 cells; [1]): increased

Vitamin D [reference compound]
O4 expression among treated cells (H9 cells; 0.1 μM from day 66 to day 95, H9 hESCs, condition 6 and early FGF): no increase
